Values joined by “and” are separate entries in the source; they are usually repeats but may differ in a detail not shown here. Equal values may be shown once. Read-outs that look alike come from different tables or passages of the source.
Columns and labels:
AChE = AChE (Homo sapiens, UniProt P22303); experiment: biochemical; details: for inhibition at 62.5 µg/mL: 62.5 μg/ml; for inhibition at 250 µg/mL: 250 μg/ml; for IC50: read-out: AChE IC50 (μM ± SEM)
Method: (§1) This yellow compound is UV detectable and is quantified with the passage of time with and without the impact of inhibitor agent. Briefly, from each enzyme solution, 5 μl were added to wells of micro plate and 5 μl DTNB was added to it. The resultant mixture was incubated for 15 min at 30°C in water bath followed by addition of 5 μl substrate solution. […] Control contains all solutions except inhibitor. Change in absorbance was recorded along with reaction time. At the end, Enzymes and enzymes inhibitory activities by control and our test samples were calculated from the rate of absorption with change in time as (V = Δ Abs /Δ t) and Enzyme inhibition as; Percent Enzyme activity = 100 × V/VMax.
(§2) Where, VMax is enzyme activity in the absence of inhibitor agent.

BChE = BChE (Homo sapiens, UniProt P06276); experiment: biochemical; details: for inhibition at 62.5 µg/mL / inhibition at 250 µg/mL: read-out: % BChE inhibition; for IC50: read-out: BChE IC50 (μM ± SEM)
BChE, sequence (P06276 29-602): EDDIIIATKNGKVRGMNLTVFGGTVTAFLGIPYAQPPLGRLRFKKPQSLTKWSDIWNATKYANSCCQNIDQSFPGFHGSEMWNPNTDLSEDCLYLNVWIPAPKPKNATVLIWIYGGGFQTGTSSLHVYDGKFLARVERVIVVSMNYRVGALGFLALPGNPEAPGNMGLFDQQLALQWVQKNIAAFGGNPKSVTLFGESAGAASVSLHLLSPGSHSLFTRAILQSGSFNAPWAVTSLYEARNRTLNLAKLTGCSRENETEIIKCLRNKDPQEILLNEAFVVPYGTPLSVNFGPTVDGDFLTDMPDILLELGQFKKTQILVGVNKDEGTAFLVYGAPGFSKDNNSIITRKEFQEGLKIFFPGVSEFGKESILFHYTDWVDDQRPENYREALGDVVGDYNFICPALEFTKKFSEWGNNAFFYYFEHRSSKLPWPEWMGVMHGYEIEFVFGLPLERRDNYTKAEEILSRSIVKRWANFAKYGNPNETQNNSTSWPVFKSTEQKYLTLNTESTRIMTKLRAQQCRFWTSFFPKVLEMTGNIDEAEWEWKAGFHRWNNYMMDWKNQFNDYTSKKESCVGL
Method: as §1, §2

human brain based AChE = details: ref Harvey, 1995; cited from earlier work
[1] = ratio of IC50 values, footnote a not given
[2] = ratio of IC50 values, footnote b not given

AChE, sequence (P22303 32-614): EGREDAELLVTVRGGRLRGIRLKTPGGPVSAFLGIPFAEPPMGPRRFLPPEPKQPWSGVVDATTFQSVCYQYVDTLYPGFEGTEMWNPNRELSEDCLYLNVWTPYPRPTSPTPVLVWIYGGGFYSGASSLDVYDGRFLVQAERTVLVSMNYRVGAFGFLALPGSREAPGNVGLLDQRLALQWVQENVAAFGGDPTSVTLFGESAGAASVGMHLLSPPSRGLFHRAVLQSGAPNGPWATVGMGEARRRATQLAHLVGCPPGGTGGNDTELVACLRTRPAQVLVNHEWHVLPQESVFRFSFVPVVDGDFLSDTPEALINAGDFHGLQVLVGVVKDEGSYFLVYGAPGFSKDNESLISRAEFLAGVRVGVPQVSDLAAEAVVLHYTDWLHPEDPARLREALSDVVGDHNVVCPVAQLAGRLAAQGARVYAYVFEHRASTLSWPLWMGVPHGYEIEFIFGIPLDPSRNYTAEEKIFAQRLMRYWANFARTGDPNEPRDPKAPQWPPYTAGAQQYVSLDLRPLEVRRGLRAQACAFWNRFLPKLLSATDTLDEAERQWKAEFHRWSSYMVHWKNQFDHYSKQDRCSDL

SMILES | inhibition at 62.5 µg/mL (AChE) | inhibition at 250 µg/mL (AChE) | AChE selectivity (AChE; [1]) | IC50 (AChE) | inhibition at 62.5 µg/mL (BChE; 62.5 μg/ml) | inhibition at 250 µg/mL (BChE; 250 μg/ml) | BChE selectivity (BChE; [2]) | IC50 (BChE) | AChE selectivity (AChE) | BChE selectivity (BChE) | inhibition at 62.5 µg/mL (BChE) | inhibition at 250 µg/mL (BChE) | lower potency against human brain based AChE as compared to RBCs variant (human brain based AChE)
COc1ccc(C(CO)OC)cc1OC (stereo not shown) [Compound 1, 2-(3,4-Dimethoxyphenyl)-2-Methoxyethanol] | 89.7 ± 1.47% | 97.3 ± 1.06% | 0.10 | 23.2 ± 1.02 µM | 84.3 ± 2.19% | 90.7 ± 1.34% | 9.62 | 2.41 ± 0.09 µM |  |  |  |  | 
COc1cc(C(=O)CCO)ccc1O [Compound 2, 3-Hydroxy-1-(4-Hydroxy-3-Methoxyphenyl) Propan-1-One] | 83.74 ± 0.68% | 93.05 ± 0.75% | 0.59 | 25.9 ± 1.35 µM | 87.6 ± 1.06% | 95.76 ± 0.71% | 1.69 | 15.4 ± 1.01 µM |  |  |  |  | 
CCC(CCC(C)C1CCC2C3CC=C4CC(OC5OC(CO)C(O)C(O)C5O)CCC4(C)C3CCC12C)C(C)C [Compound 3, β-Sitosterol-3-O-β-D-Glucopyranoside] | 87.9 ± 0.52% | 95.7 ± 1.6% | 2.26 | 5.22 ± 0.59 µM | 83.03 ± 0.35% | 94.84 ± 0.3% | 0.47 | 11.8 ± 0.93 µM |  |  |  |  | 
C=C(C)[C@@H]1CC[C@]2(C)CC[C@]3(C)[C@H](CC[C@@H]4[C@@]5(C)CC[C@H](O)C(C)(C)[C@@H]5CC[C@]43C)[C@@H]12 [Compound 4, Lupeol] | 77.87 ± 0.26% | 93.73 ± 0.78% | 0.04 | 36.3 ± 1.89 µM | 85.8 ± 1.5% | 91.42 ± 0.43% | 27.71 | 1.31 ± 0.12 µM |  |  |  |  | 
CC[C@H](CC[C@@H](C)[C@H]1CC[C@H]2[C@@H]3CC=C4C[C@@H](O)CC[C@]4(C)[C@H]3CC[C@]12C)C(C)C [Compound 5, β-Sitosterol] | 80% | 91.33 ± 0.49% |  | 14.6 ± 0.85 µM | 87.08 ± 0.47% | 92.6 ± 1.12% |  | 0.55 µM and 0.56 µM | 0.04 | 26.62 |  |  | 
C=C(C)[C@@H]1CC[C@]2(CO)CC[C@]3(C)[C@H](CC[C@@H]4[C@@]5(C)CC[C@H](O)C(C)(C)[C@@H]5CC[C@]43C)[C@@H]12 [Compound 6, 3β, 28-Dihydroxylup-20(29)-ene] | 84 ± 1.15% | 96.13 ± 0.2% | 1.06 | 24 ± 1.1 µM | 82.5 ± 0.9% | 95.8 ± 2.25% | 0.93 | 25.6 ± 1.25 µM |  |  |  |  | 
C=C(C)[C@@H]1CC[C@]2(C(=O)O)CC[C@]3(C)[C@H](CC[C@@H]4[C@@]5(C)CC[C@H](O)C(C)(C)[C@@H]5CC[C@]43C)[C@@H]12 [Compound 7, 3β-Dihydroxylup-20(29)-ene-28-oic Acid] | 77.7 ± 1.25% | 95.7 ± 1.6% | 0.07 | 44.5 ± 1.73 µM | 87.2 ± 1.28% | 94.1 ± 0.6% | 12.78 | 3.48 ± 0.15 µM |  |  |  |  | 
O=c1cc(-c2ccccc2)oc2cc(O)cc(O)c12 [Compound 9, 5,7-Dihydroxyflavone] | 81.2 ± 0.23% | 93.67 ± 0.88% | 0.02 | 32.3 ± 1.8 µM | 80.9 ± 1.9% | 85% | 51.27 | 0.63 ± 0.06 µM |  |  |  |  | 
COc1ccc2c3c1O[C@H]1C[C@@H](O)C=C[C@@]31CCN(C)C2 [Galantamine, reference compound] |  |  |  |  |  |  |  |  |  |  | 87.8 ± 1.01% | 95.3 ± 1.09% | 10 times

— article PMC5461367, “Neurologically Potent Molecules from Crataegus oxyacantha; Isolation, Anticholinesterase Inhibition, and Molecular Docking” (Frontiers in Pharmacology, 2017)
